Measurements: patent publication US20110152268A1, “NOVEL PHARMACEUTICAL COMPOSITION FOR TREATING NOCICEPTIVE PAIN” (ASTELLAS PHARMA INC., priority 2008, published 2011)
Where a name gives a salt, the structure may show the parent alone. Read-outs that look alike come from different tables or passages of the source.

Columns and labels:
[1] = test system: Bradykinin-Induced Knee Pain Model
Experimental: The induction and evaluation of the present model was basically carried out in accordance with Ann Rheum Dis, 52, 817-822 (1993). A diluted solution, which was diluted with a solvent so as to obtain a vehicle and the compound A having a predetermined concentration, was orally administered to male SD rats (6-7 week old, obtained by Charles River Laboratories Japan, Inc.). This test was carried out for 10 rats of each group. The solvent herein used was distilled water. […] The inhibition rate of the drug to be tested was calculated by setting the difference in weight of a vehicle-administered group to an inhibition rate of 0% and the difference in weight of a normal group to an inhibition rate of 100%. Significant difference testing was carried out by between-group comparison between the vehicle group and the drug group using a Dunnett's t-test after ANOVA testing.

[2] = test system: Monoiodoacetate (MIA)-Induced Osteoarthritis Model; assay: Analgesic action in monoiodoacetate (MIA)-induced osteoarthritis model (difference in hindlimb weight); type: in vivo, rat; settings: male SD rats, 3 weeks after MIA, oral, compound A 30 mg/kg, 1 hour after administration
Experimental: The present disease model was produced based on the description of Toxicol Pathol 31 (6), 619-624 (2003). […] MIA was dissolved in physiological saline and 50 μl of the resulting solution was administered with a needle (26 gauge, 0.5 inch). […] The solvent herein used was distilled water. One hour after administration, the difference in weight between the left and right hindlimbs was measured using an incapacitance tester (manufactured by Linton Instrumentation, Norfolk, UK).

[3] = test system: Adjuvant-Derived Arthritis Rat; assay: Inhibitory effect on the difference in hindlimb weight of adjuvant-derived arthritis rat; type: in vivo
Experimental: In this test, female Lewis rats (7-8 weeks old) were used. 50 μL of H37 Ra (manufactured by DIFCO Co.), Mycobacterium tuberculosis suspended with liquid paraffin to a concentration of 10 mg/mL was subcutaneously administered around the right hind footpad. […] The number of rats of each group was 8. The solvent herein used was distilled water. When taking into consideration the period for obtaining a maximum in-blood-concentration, at one hour after administration, the difference in weight between the left and right hindlimbs was measured using an incapacitance tester (manufactured by Linton Instrumentation, Norfolk, UK).

[4] = test system: Monoiodoacetate (MIA)-Induced Osteoarthritis Model; settings: rats, 3 weeks after MIA administration, inflammation already recovered; cited from earlier work
[5] = test system: Bradykinin-Induced Knee Pain Model; settings: as a joint injection; cited from earlier work
[6] = compound A 10 mg/kg vs duloxetine 30 mg/kg, oral

## C1=Cc2cccc(OCC3CNCCO3)c2C1 (single isomer, unassigned; (+)) [compound A benzenesulfonate, (+)-2-[(inden-7-yloxy)methyl]morpholine]
[1]; male SD rats, oral, 10 mg/kg, bradykinin injected 1 hour after administration
  improvement effect (inhibition rate) on pain behavior score: 55%

## C1=Cc2cccc(OCC3CNCCO3)c2C1 (single isomer, unassigned; (+)) [compound A hydrobromate, (+)-2-[(inden-7-yloxy)methyl]morpholine]
[2]
  improvement effect (inhibition rate) on the difference in hindlimb weight: 54%
[3]; female Lewis rats, day after adjuvant, oral, 10 mg/kg, 1 hour after administration
  improvement effect (inhibition rate) on the difference in hindlimb weight: 65%

## C1=Cc2cccc(OCC3CNCCO3)c2C1 (single isomer, unassigned; (+)) [compound A, (+)-2-[(inden-7-yloxy)methyl]morpholine]
[1]; [6]
  improvement effect relative to duloxetine: ~3 fold
[3]; [6]
  improvement effect relative to duloxetine: about 3 fold

## O=C(O)Cc1ccccc1Nc1c(Cl)cccc1Cl [diclofenac]
[4]
  effectiveness of NSAIDs on pain in this stage of the MIA model: not effective

## CNCC[C@H](Oc1cccc2ccccc12)c1cccs1 [duloxetine hydrochloride, (S)—N-methyl-γ-(1-naphthalenyloxy)-2-thiophenepropanamine]
[3]; rat, in vivo, po, 30 mg/kg
  improvement effect (inhibition rate) on the difference in hindlimb weight: 63%

## CNCC[C@H](Oc1cccc2ccccc12)c1cccs1 [duloxetine, (S)—N-methyl-γ-(1-naphthalenyloxy)-2-thiophenepropanamine]
[1]; rat, in vivo, po, 30 mg/kg
  improvement effect (inhibition rate) on pain behavior score: 56%

## COc1ccc2c(c1)c(CC(=O)O)c(C)n2C(=O)c1ccc(Cl)cc1 [indomethacin]
[4]
  effectiveness of NSAIDs on pain in this stage of the MIA model: not effective

## hyaluronan
[5]
  effectiveness in the bradykinin model: effective
